The test system of series [1] is several mammalian cell types. Conditions: energy-independent manner; Zhao et al., 2003; cited from earlier work.
Series [2] is described as follows: Stability of the drug substance. Type of series: physicochemical. The protocol:
Study Drug. D-Arg-2′6′-Dmt-Lys-Phe-NH2 is a small peptide (CAS No. 736992-21-5). Its molecular weight is 639.8 (free base). […] The drug substance will be provided as a lyophilized powder in sterile glass vials. Each vial will be reconstituted with 10 mL of sterile D5W by the unblinded pharmacist at each site.

A further series has as its system mu-opioid receptor. The note with it: cited from earlier work.
The next series has as its system wild type mice. Conditions: treatment at 0, 6, 24 and 48 hours after 30 min occlusion; U.S. Patent Publication No. 20070129306; cited from earlier work.
Series [3] has as its system mitochondria. Conditions: cited from earlier work.
In series [4] the test system is mitochondria. The note with it: cited from earlier work. This is another data set of the same source.
For a further series, the system named is animal model of ARI. Conditions: cited from earlier work.
Series [5] has as its system New Zealand white rabbits. As to the kind of experiment: Rabbit model of acute myocardial ischemia and reperfusion (30 min ischemia, 180 min reperfusion), infarct size by histomorphometry. Type of series: in vivo. The procedure:
New Zealand white rabbits were used in this study. The rabbits were males and >10 weeks in age. Environmental controls in the animal rooms were set to maintain temperatures of 61° to 72° F. and relative humidity between 30% and 70%. Room temperature and humidity were recorded hourly, and monitored daily. There were approximately 10-15 air exchanges per hour in the animal rooms. Photoperiod was 12-hr light/12-hr dark (via fluorescent lighting) with exceptions as necessary to accommodate dosing and data collection. Routine daily observations were performed. Harlan Teklad, Certified Diet (2030C), rabbit diet was provided approximately 180 grams per day from arrival to the facility. In addition, fresh fruits and vegetables were given to the rabbit 3 times a week.
The peptide D-Arg-2′6′-Dmt-Lys-Phe-NH2 (sterile lyophilized powder) was used as the test article. Dosing solutions were formulated at no more than 1 mg/ml, and were delivered via continuous infusion (IV) at a constant rate (e.g., 50 μL/kg/min). Normal saline (0.9% NaCl) was used as a control.
The test/vehicle articles were given intravenously, under general anesthesia, in order to mimic the expected route of administration in the clinical setting of AMI and PTCA. Intravenous infusion was administered via a peripheral vein using a Kd Scientific infusion pump (Holliston, MA 01746) at a constant volume (e.g., 50 μL/kg/min).
The study followed a predetermined placebo and sham controlled design. In short, 10-20 healthy, acclimatized, male rabbits were assigned to one of three study arms (approximately 2-10 animals per group). Arm A (n=10, CTRL/PLAC) includes animals treated with vehicle (vehicle; VEH, IV); Arm B (n=10, treated) includes animals treated with peptide; Arm C (n=2, SHAM) includes sham-operated time-controls treated with vehicle (vehicle; VEH, IV) or peptide.
In all cases, treatments were started approximately 10 min after the onset of a 30 min ischemic insult (coronary occlusion) and continued for up to 3 h following reperfusion. In all cases, cardiovascular function was monitored both prior to and during ischemia, as well as for up to 180 min (3 h) post-reperfusion. The experiments were terminated 3 h post-reperfusion (end of study); irreversible myocardial injury (infarct size by histomorphometery) at this time-point was evaluated, and was the primary-end-point of the study.
Following hemodynamic stabilization and baseline measurements, the animals were subjected to an acute 30 min ischemic insult by tightening of the LAD/LCX coronary artery snares. […]
Histopathology/Histomorphometery. At the completion of the protocol, irreversible myocardial injury (i.e., infarction) resulting from the I/R insult was evaluated. […]

[6] abbreviates: 45 min ischemia and 24 h reperfusion.
[7] abbreviates: IV continuous infusion from 10 min into 30 min ischemia through 180 min reperfusion, n = 10, p < 0.05 vs placebo.

“Also recorded” adds a separate entry of the source. Non-standard residues stand in square brackets, D forms with d. No end group written: not given here.

Regarding 2′,6′-Dmt-D-Arg-Phe-Lys-NH2, the “penetration of the plasma membrane” value in series [1] is on record as “readily penetrates”.

As to D-Arg-2′,6′-Dmt-Lys-Phe-NH2, in series [2], the resistance to oxidation entry is “resistant to oxidation” and the “temperature up to which stable” value is “up to 40 °C”. In addition, the stability to light result in series [2] (powder or liquid form) is “stable to light”. For the same substance, the “mu-opioid receptor agonist activity” value in the series with mu-opioid receptor is reported as “does not have mu-opioid receptor agonist activity”. In the series with wild type mice, the “hemispheric swelling compared to saline controls” value is given as “significant reduction” and the “infarct volume compared to saline controls” value was “significant reduction”. In addition, in the series on mitochondria [3], the “adenosine triphosphate (ATP) levels” value is “maintaining”, the “electron transfer within the mitochondrial electron transport chain” value was “facilitating”, the “loss of mitochondrial membrane potential” value is “preventing” and the “mitochondrial respiration (oxygen consumption)” value was “maintaining”. Besides, in the series with mitochondria [3], the “mitochondrial swelling (mPTP opening)” value is recorded as “preventing”, the “reactive oxygen species (ROS)” value is “scavenging” and the “release of cytochrome c” value is on record as “preventing”. Besides, in the series with mitochondria [4], the “concentration in the mitochondrial pellet relative to extracellular fluid” value was “approximately 5000 fold” and the “intracellular concentration relative to extracellular fluid” value is “six”. In the series on animal model of ARI (setting [6]), the histopathological score result is listed as “significantly improved” and the “rate of ATP production after reperfusion” value was “significantly increased”. Besides, the “incidence of ARI caused by ischemia-reperfusion” value with animal model of ARI (U.S. Patent Publication No. 20090221514) is given as “effective in reducing”. In addition, the “interstitial fibrosis, tubular apoptosis, macrophage infiltration and tubular proliferation” value with animal model of ARI (animal model of ARI) is given as “effective in reducing”. The “myocardial infarct size compared to the control” value in series [5] (30 min ischemia, infusion continued 180 min after reperfusion, listed as peptide) was “decreased infarct size; also recorded: able to reduce myocardial infarct size”. Further, in series [5] (setting [7]), the “Myocardial Area IA/AR (infarcted area / area at risk)” value is on record as 24.7 ± 4.7% and the “Myocardial Area IA/LV (infarcted area / left ventricular area)” value was determined as 16.2 ± 3.4%. The myocardial salvage entry in series [5] (treatment for less than 3 hours after reperfusion, i.e., 30 min, data not shown) is given as “comparable myocardial salvage”.

Consider F[dR]FK-NH2, for which the “mu-opioid receptor agonist activity” value with mu-opioid receptor was “does not have mu-opioid receptor agonist activity”.

Turning to Tyr-D-Arg-Phe-Lys-NH2, the “mu-opioid receptor agonist activity” value in the series with mu-opioid receptor is given as “has mu-opioid receptor agonist activity”.

The values above are taken from US20220280593A1, “METHODS FOR […] CORONARY ARTERY BYPASS GRAFT PROCEDURE” (Stealth BioTherapeutics Inc., priority 2009, published 2022).
